Results published in patent US6525001B1, “Substituted pyrimidine and pyridine herbicides” (Mid-American Commercialization Corporation, priority 1997, dated 2003).

Key:
Assay in all cases: Test D
Assay type in all cases: in vivo
[1] = tested on: chickweed (Stellaria media); settings: PREEMERGENCE
[2] = tested on: Russian thistle (Salsola kali); design: key: 0 is no effect; 100 is complete control; settings: PREEMERGENCE
[3] = tested on: blackgrass (Alopecurus myosuroides); settings: POSTEMERGENCE
Experimental: (§1) Compounds evaluated in this test were formulated in a non-phytotoxic solvent mixture which included a surfactant and applied to plants that were in the 1- to 4-leaf stage (postemergence application). A mixture of sandy loam soil and greenhouse potting mix in a 60:40 ratio was used for the postemergence test.
(§2) Plantings of these crops and weed species were adjusted to produce plants of appropriate size for the postemergence test. All plant species were grown using normal greenhouse practices. Crop and weed species include alfalfa (Medicago sativa), annual bluegrass (Poa annua), blackgrass (Alopecurus myosuroides), black nightshade (Solanum nigra), chickweed (Stellaria media), common poppy (Papaver rhoeas), deadnettle (Lamium amplexicaule), downy brome (Bromus tectorum), field violet (Viola arvensis), galium 2 (Galium aparine), green foxtail (Setaria viridis), Italian ryegrass (Lolium multiflorum), jointed goatgrass (Aegilops cylindrica), kochia (Kochia scoparia), lambsquarters (Chenopodium album), lentil (Lens culinaris), littleseed canarygrass (Phalaris minor), pea (Pisum sativum), potato (Solanum tuberosum), rape (Brassica napus), redroot pigweed (Amaranthus retroflexus), Russian thistle (Salsola kali), scentless chamomile (Matricaria inodora), sorghum (Sorghum vulgare), spring barley (Hordeum vulgare), sugar beet (Beta vulgaris), sunflower (Helianthus annuus), ivyleaf speedwell (Veronica hederaefolia), spring wheat (Triticum aestivum), winter wheat (Triticum aestivum), wild buckwheat (Polygonum convolvulus), wild mustard (Sinapis arvensis), wild oat (Avena fatua), windgrass (Apera spica-venti) and winter barley (Hordeum vulgare).
(§3) Treated plants and untreated controls were maintained in a greenhouse for approximately 21 to 28 days, after which all treated plants were compared to untreated controls and visually evaluated. Plant response ratings, summarized in Table D, are based upon a 0 to 100 scale where 0 is no effect and 100 is complete control. A dash response (−) means no test result.

[4] = tested on: sunflower (Helianthus annuus); settings: POSTEMERGENCE
Experimental: as §1, §2, §3

[5] = tested on: downy brome (Bromus tectorum); settings: POSTEMERGENCE
Experimental: as §1, §2, §3

[6] = tested on: spring wheat (Triticum aestivum); settings: POSTEMERGENCE
Experimental: as §1, §2, §3

[7] = tested on: winter barley (Hordeum vulgare); settings: POSTEMERGENCE
Experimental: as §1, §2, §3

[8] = tested on: winter wheat (Triticum aestivum); settings: POSTEMERGENCE
Experimental: as §1, §2, §3

[9] = tested on: wild oat (Avena fatua); settings: POSTEMERGENCE
Experimental: as §1, §2, §3

[10] = tested on: jointed goatgrass (Aegilops cylindrica); settings: POSTEMERGENCE
Experimental: as §1, §2, §3

[11] = tested on: deadnettle (Lamium amplexicaule); settings: PREEMERGENCE
[12] = tested on: scentless chamomile (Matricaria inodora); settings: PREEMERGENCE
[13] = tested on: chickweed (Stellaria media); design: key: 0 is no effect; 100 is complete control; settings: POSTEMERGENCE
Experimental: as §1, §2, §3

[14] = tested on: rape (Brassica napus); design: key: 0 is no effect; 100 is complete control; settings: POSTEMERGENCE
Experimental: as §1, §2, §3

[15] = tested on: common poppy (Papaver rhoeas); design: key: 0 is no effect; 100 is complete control; settings: POSTEMERGENCE
Experimental: as §1, §2, §3

[16] = tested on: deadnettle (Lamium amplexicaule); design: key: 0 is no effect; 100 is complete control; settings: POSTEMERGENCE
Experimental: as §1, §2, §3

[17] = tested on: wild mustard (Sinapis arvensis); design: key: 0 is no effect; 100 is complete control; settings: POSTEMERGENCE
Experimental: as §1, §2, §3

[18] = tested on: black nightshade (Solanum nigra); design: key: 0 is no effect; 100 is complete control; settings: POSTEMERGENCE
Experimental: as §1, §2, §3

[19] = tested on: sugar beet (Beta vulgaris); design: key: 0 is no effect; 100 is complete control; settings: POSTEMERGENCE
Experimental: as §1, §2, §3

[20] = tested on: annual bluegrass (Poa annua); design: key: 0 is no effect; 100 is complete control; settings: PREEMERGENCE
[21] = tested on: littleseed canarygrass (Phalaris minor); settings: PREEMERGENCE
[22] = tested on: winter barley (Hordeum vulgare); settings: PREEMERGENCE
[23] = tested on: sunflower (Helianthus annuus); settings: PREEMERGENCE

Cc1cnc(-c2ccc(C(F)(F)F)cc2)nc1Cc1cccc(C(F)(F)F)c1 [Example 1, 5-methyl-2-[4-(trifluoromethyl)phenyl]-4-[[3-(trifluoromethyl)phenyl]methyl]pyrimidine]
70: Plant response rating, Scentless chamo ([12]; Rate 62 g/ha) | Plant response rating, Chickweed ([13]; Rate 125 g/ha) | Plant response rating, Deadnettle ([16]; Rate 31 g/ha) | Plant response rating, Deadnettle ([16]; Rate 62 g/ha) | Plant response rating, Deadnettle ([16]; Rate 125 g/ha) | Plant response rating, LS canarygrass ([21]; Rate 250 g/ha)
85: Plant response rating, Chickweed ([1]; Rate 62 g/ha) | Plant response rating, Chickweed ([1]; Rate 125 g/ha) | Plant response rating, Deadnettle ([11]; Rate 125 g/ha) | Plant response rating, Scentless chamo ([12]; Rate 250 g/ha) | Plant response rating, Rape ([14]; Rate 125 g/ha) | Plant response rating, Deadnettle ([16]; Rate 16 g/ha) | Plant response rating, Wild mustard ([17]; Rate 16 g/ha) | Plant response rating, Annual bluegras ([20]; Rate 250 g/ha) | Plant response rating, LS canarygrass ([21]; Rate 125 g/ha)
35: Plant response rating, Sunflower ([23]; Rate 62 g/ha)
40: Plant response rating, Barley (winter) ([22]; Rate 250 g/ha)
75: Plant response rating, Scentless chamo ([12]; Rate 125 g/ha) | Plant response rating, Sugar beet ([19]; Rate 31 g/ha) | Plant response rating, Annual bluegras ([20]; Rate 31 g/ha)
50: Plant response rating, Common poppy ([15]; Rate 16 g/ha) | Plant response rating, Blk nightshade ([18]; Rate 62 g/ha) | Plant response rating, Blk nightshade ([18]; Rate 125 g/ha) | Plant response rating, Sunflower ([23]; Rate 125 g/ha)
55: Plant response rating, Chickweed ([1]; Rate 31 g/ha)
65: Plant response rating, Deadnettle ([11]; Rate 62 g/ha) | Plant response rating, Rape ([14]; Rate 16 g/ha)
20: Plant response rating, Sunflower ([4]; Rate 62 g/ha) | Plant response rating, Sunflower ([4]; Rate 125 g/ha) | Plant response rating, Spring Wheat ([6]; Rate 125 g/ha) | Plant response rating, Wild oat ([9]; Rate 31 g/ha) | Plant response rating, Wild oat ([9]; Rate 62 g/ha) | Plant response rating, LS canarygrass ([21]; Rate 31 g/ha) | Plant response rating, Barley (winter) ([22]; Rate 62 g/ha)
100: Plant response rating, Russian thistle ([2]; Rate 62 g/ha) | Plant response rating, Russian thistle ([2]; Rate 250 g/ha) | Plant response rating, Rape ([14]; Rate 31 g/ha) | Plant response rating, Rape ([14]; Rate 62 g/ha) | Plant response rating, Common poppy ([15]; Rate 31 g/ha) | Plant response rating, Common poppy ([15]; Rate 62 g/ha) | Plant response rating, Common poppy ([15]; Rate 125 g/ha) | Plant response rating, Wild mustard ([17]; Rate 31 g/ha) | Plant response rating, Wild mustard ([17]; Rate 62 g/ha) | Plant response rating, Wild mustard ([17]; Rate 125 g/ha) | Plant response rating, Sugar beet ([19]; Rate 125 g/ha) | Plant response rating, Annual bluegras ([20]; Rate 125 g/ha)
5: Plant response rating, Sunflower ([4]; Rate 16 g/ha) | Plant response rating, Spring Wheat ([6]; Rate 16 g/ha) | Plant response rating, Barley (winter) ([7]; Rate 16 g/ha) | Plant response rating, Wheat (winter) ([8]; Rate 16 g/ha) | Plant response rating, Wild oat ([9]; Rate 16 g/ha) | Plant response rating, Jointed goatgra ([10]; Rate 16 g/ha)
10: Plant response rating, Russian thistle ([2]; Rate 31 g/ha) | Plant response rating, Blackgrass ([3]; Rate 16 g/ha) | Plant response rating, Blackgrass ([3]; Rate 31 g/ha) | Plant response rating, Blackgrass ([3]; Rate 62 g/ha) | Plant response rating, Sunflower ([4]; Rate 31 g/ha) | Plant response rating, Downy brome ([5]; Rate 31 g/ha) | Plant response rating, Downy brome ([5]; Rate 62 g/ha) | Plant response rating, Downy brome ([5]; Rate 125 g/ha) | Plant response rating, Spring Wheat ([6]; Rate 31 g/ha) | Plant response rating, Spring Wheat ([6]; Rate 62 g/ha) | Plant response rating, Barley (winter) ([7]; Rate 31 g/ha) | Plant response rating, Barley (winter) ([7]; Rate 62 g/ha) | Plant response rating, Barley (winter) ([7]; Rate 125 g/ha) | Plant response rating, Wheat (winter) ([8]; Rate 31 g/ha) | Plant response rating, Wheat (winter) ([8]; Rate 62 g/ha) | Plant response rating, Wheat (winter) ([8]; Rate 125 g/ha) | Plant response rating, Jointed goatgra ([10]; Rate 31 g/ha) | Plant response rating, Jointed goatgra ([10]; Rate 62 g/ha) | Plant response rating, Jointed goatgra ([10]; Rate 125 g/ha) | Plant response rating, Barley (winter) ([22]; Rate 31 g/ha) | Plant response rating, Sunflower ([23]; Rate 31 g/ha)
90: Plant response rating, Chickweed ([1]; Rate 250 g/ha) | Plant response rating, Deadnettle ([11]; Rate 250 g/ha) | Plant response rating, Sugar beet ([19]; Rate 62 g/ha)
60: Plant response rating, Deadnettle ([11]; Rate 31 g/ha) | Plant response rating, Blk nightshade ([18]; Rate 16 g/ha) | Plant response rating, Annual bluegras ([20]; Rate 62 g/ha) | Plant response rating, LS canarygrass ([21]; Rate 62 g/ha)
80: Plant response rating, Chickweed ([13]; Rate 16 g/ha) | Plant response rating, Chickweed ([13]; Rate 62 g/ha)
2: Plant response rating, Downy brome ([5]; Rate 16 g/ha)
30: Plant response rating, Blackgrass ([3]; Rate 125 g/ha) | Plant response rating, Wild oat ([9]; Rate 125 g/ha) | Plant response rating, Scentless chamo ([12]; Rate 31 g/ha) | Plant response rating, Barley (winter) ([22]; Rate 125 g/ha) | Plant response rating, Sunflower ([23]; Rate 250 g/ha)
45: Plant response rating, Sugar beet ([19]; Rate 16 g/ha)
